“Also recorded” adds a separate entry of the source.
Key:
Format in all cases: cell-based, human
U-2932 cells [1] = experiment: Real Time Glo viability screen and validation, Betalutin with PARP or cell cycle kinase inhibitors (Examples 4, 7); conditions: for BLISS analysis, combination with Betalutin versus expected additive effect: U-2932, significant = more than twice the SD of Betalutin alone
Method: (§1) DLBCL cell lines U2932 and RIVA were maintained in RPMI 1640-GlutaMAX medium (Gibco) supplemented with 15% fetal bovine serum (Biowest) and 1% penicillin-streptomycin (Gibco) at 37° C. in a humidified atmosphere containing 5% CO2. Cells were split twice a week 1:7 and diluted 2-4 days before start of the experiment, to ensure they are in exponential growth at the beginning of the experiment.
(§2) Cells were treated in 6-well plates without shaking for 18 h with Betalutin at a final concentration of 1 μg/ml for U2932 and 0.5 μg/ml for RIVA. After treatment, PBS was added to the cells, and the cells pelleted. Cells were first resuspended in 1 ml PBS, then washed twice in PBS and finally diluted in growth medium to a final concentration of 2.5*10^6 cells/ml.
(§3) Cells density measurements were performed the day before seeding. Based on these measurements cells were seeded in 384-well plates at a density of 3000 cells per well in a culturing volume of 25 μl (resulting in start titers: 120 000 cells/ml) using a robot. For measuring viability using Real Time Glo (Promega, WI, USA), the Cell Viability Substrate and NanoLuc® Enzyme were diluted 1:500 in growth medium, and 25 μL of diluted reagents dispensed in each well by a robot. All reagents were equilibrated to 37° C. Cells were incubated with the reaction mix for 1 h at 37° C. before the first measurement of luminescence. Measurements were repeated as often as required within 72 h after adding the reagents. A Tecan SPARK 10M plate reader (Tecan, SUI) was used to measure luminescence, with the integration time set to 1 sec.
(§4) The screen was performed in 384-well plate with selected PARP inhibitors (stock solutions 10 mM in DMSO) acquired from SelleckChem (Selleckchem, TX, USA). To include no-drug controls, the drug panel (Table 6) was divided on two plates. Due to previous observations of cells growing poorly in wells located at the edges of the plates, the two outer most rows and columns were not used. As previously mentioned three different drug concentrations were used in the screen, 10 nM and 1 μM for U2932 and 10 and 100 nM for RIVA.
(§5) Candidate hits were identified using the Bliss Independence test for synergy. The effect of each drug alone at each concentration was calculated as the fraction of dead cells as compared to control cells Fa=(1−(RLUdrug/avgRLUcontrol), a similar calculation was performed for the effect of Betalutin alone Fb=(1−(avgRLUBetalutin/avgRLUcontrol). Through the following equation we found the expected additive effect of the combination of drug+Betalutin: Expected effect (E)Fab=(Fa+Fb−Fa*Fb). We subtracted this expected effect from the measured effect (M)Fab=(1−(RLUDrug+Betalutin/avgRLUcontrol) to get a value (Diff)Fab representing how the measured effect differed from the expected additive effect of the combination. This value was normalized to the survival fraction of drug alone: (Diff)Fab#=(Diff)Fab/(1−Fa). Furthermore, to get a measure of how big the well-to-well variation was, we calculated the standard deviation for the effect of Betalutin alone in the 48 control wells on each plate: (STDEV)Fb=(RLUBetalutin/RLUcontrol)−(averageRLUBetalutin/averageRLUcontrol). Drugs with a value (Diff)Fab#two times higher than the standard deviation of Betalutin treated controls, (STDEV)Fb, were scored as hits.
as §3, with “Measurements were repeated as often as required within 72 h after adding the reagents. A Tecan SPARK 10M plate reader (Tecan, SUI) was used to measure luminescence, with the integration time set to 1 sec.” left out

RIVA cells = experiment: Real Time Glo viability screen, Betalutin with PARP or cell cycle kinase inhibitors (Examples 4, 7); conditions: for BLISS analysis, combination with Betalutin versus expected additive effect: significant = more than twice the SD of Betalutin alone
Method: as §1, §2, §3, §4, §5
as §3, with “Measurements were repeated as often as required within 72 h after adding the reagents. A Tecan SPARK 10M plate reader (Tecan, SUI) was used to measure luminescence, with the integration time set to 1 sec.” left out

U-2932 cells [2] = experiment: Real Time Glo viability screen and validation, Betalutin with PARP or cell cycle kinase inhibitors (Examples 4, 7); conditions: for Effect of monotreatment on proliferation: U-2932, validation screen, 0-1280 nM
DOHH2 cells [3] = experiment: Apoptosis induction (Annexin V/7-AAD, Muse flow cytometer); conditions: DOHH2, 6 MBq/mL radiolabelled mAb for 18 h, peak time 72 h
Method: (§6) Cells were harvested at 0, 2 h, 18 h, 1 d, 2 d, 3 d of RIT. At each time point, apoptosis was detected with […] from Merck Millipore (Annexin V Kit with 7-AAD) in the dark for 30 min at room temperature before analysis using Muse® flow cytometer

Ramos cells [4] = experiment: as above; conditions: 6 MBq/mL radiolabelled mAb for 18 h, peak time 72 h
Method: as §6

Rec-1 cells [5] = experiment: as above; conditions: Rec-1, 6 MBq/mL radiolabelled mAb for 18 h, peak time 72 h
Method: as §6

DOHH2 cells [6] = experiment: Cell cycle analysis (PI, Muse flow cytometer); conditions: DOHH2, 6 MBq/mL, at 24 h
Method: (§7) Cells were harvested at day 0, 2 h, 18 h, 1 d, 2 d, 3 d, of RIT then fixed in 70% ethanol at −20° C. for 3 hours and stained with Cell Cycle kit (with PI) reagent from Merck Millipore in the dark for 30 min at room temperature before analysis using a Muse® flow cytometer. The percentage of cells in G0/G1, S and G2/M phases was then calculated (mean of three experiments in triplicate).
(§8) At different times after start of incubation, proteins were extracted to measure the CDK1 phosphorylation levels, in parallel, proliferation was determined and at 18 h and 24 h after start of incubation, the percentage of cells in G2/M was assessed (experiments were performed three time except the cell cycle analysis).
(§9) Cells were harvested at 0 h, 2 h, 18 h, 1 d, 2 d, 3 d, and fixed in 70% ethanol at −20° C. for at least 3 h. After staining with the Muse® Cell Cycle Assay Kit (Merck Millipore, Molsheim, France) using propidium iodide in the dark at room temperature for 30 min, cell cycle distribution was analyzed using a Muse® flow cytometer. The percentage of cells in the G0/G1, S and G2/M was calculated (mean of three experiments in triplicate) and the effect of WEE-1 and MYT-1 kinase inhibitors on the cell cycle was assessed.

Ramos cells [7] = experiment: Cell cycle analysis (PI, Muse flow cytometer); conditions: 6 MBq/mL, at 24 h
Method: as §7, §8, §9

Rec-1 cells [8] = experiment: Cell cycle analysis (PI, Muse flow cytometer); conditions: Rec-1, 6 MBq/mL, at 24 h
Method: as §7, §8, §9

[9] = test system: CD133 and CD44 at the DOHH2 cell surface; experiment: Expression of stem cell markers after RIT (flow cytometry); conditions: DOHH2, 6 MBq/mL for 18 h, up to 9 days post-RIT
Method: Cells were harvested at 0, 2 h, 18 h and each day from 1 d to 10 d of RIT. At each time point, cells were fixed with PFA 4% for 10 minutes, washed twice with PBS and sterilely stored in PBS at 4° C. Stem cell markers were detected with anti-CD133-FITC (clone: AC133, Milteniy) and anti-CD44-APC (clone: IM7, Merck Millipore). 0.5×10^6 cells were saturated for 1 h in PBS-BSA 0.5%. Next cells were centrifuged and incubated with anti-CD133-FITC (2 μL) and anti-CD44-APC (0.125 μg) for 1 h at room temperature in the dark. Finally, cells were rinsed twice and analysed using Gallios® flow cytometer (Beckman Coulter).
For a preliminary study, investigation of the expression of CD133 and CD44 at the surface of cells treated for 18 h with 6 MBq/mL ^177Lu-lilotomab and ^177Lu-rituximab was done.

[10] = U-2932, drug 1 μM + Betalutin 1 μg/ml
[11] = RIVA, drug 100 nM + Betalutin 0.5 μg/ml

Molecule	Growth inhibitory effect, drug alone (U-2932 cells [1]; U-2932, drug 10 nM)	Growth inhibitory effect, drug combined with Betalutin (U-2932 cells [1]; [10])	BLISS analysis, combination with Betalutin versus expected additive effect (U-2932 cells [1])	Growth inhibitory effect, drug alone (RIVA cells; RIVA, drug 10 nM)	Growth inhibitory effect, drug combined with Betalutin (RIVA cells; [11])	BLISS analysis, combination with Betalutin versus expected additive effect (RIVA cells; RIVA)	Effect of monotreatment on proliferation (U-2932 cells [2])	further results
CN(C)Cc1ccc(-c2nc3cccc4c3n2CCNC4=O)cc1 [AG-14361]	only a minor inhibitory effect; also recorded: no growth inhibitory effect	potentiated the proliferation inhibitory effect of Betalutin; also recorded: stronger growth inhibition than AG-14361 alone	strongest combinatory effect	only a minor inhibitory effect; also recorded: no growth inhibitory effect	potentiated the proliferation inhibitory effect of Betalutin; also recorded: stronger growth inhibition than AG-14361 alone	strongest combinatory effect	–	Growth inhibitory effect, drug combined with Betalutin (U-2932 cells [1]; U-2932, drug 10 nM + Betalutin 1 μg/ml): did not enhance the growth inhibitory effect of Betalutin; Growth inhibitory effect, drug alone (U-2932 cells [1]; U-2932, drug 1 μM): inhibited proliferation; Growth inhibitory effect, drug combined with Betalutin (RIVA cells; RIVA, drug 10 nM + Betalutin 0.5 μg/ml): did not enhance the growth inhibitory effect of Betalutin; Growth inhibitory effect, drug alone (RIVA cells; RIVA, drug 100 nM): inhibited proliferation
CC[C@@H]1C(=O)N(C)c2cnc(Nc3ccc(C(=O)NC4CCN(C)CC4)cc3OC)nc2N1C1CCCC1 [BI2536]	–	–	significance was only reached in U-2932 cells	–	–	significance was only reached in U-2932 cells	blocked proliferation almost completely at concentrations above 40 nM	inhibition at 0.01 µM (U-2932 cells [1]; Homo sapiens, U2932, read-out: Inhibition of proliferation, drug alone): > 80%; inhibition at 0.01 µM (RIVA cells; Homo sapiens, read-out: Inhibition of proliferation, drug alone): > 80%; Drug concentration at which synergism with Betalutin is evident (CI, Chou-Talalay) (U-2932 cells [2]; U-2932, Betalutin 0.5, 1 or 2 μg/ml, day 5): 40 nM
C[C@@H](Oc1cc(-n2cnc3ccc(CN4CCN(C)CC4)cc32)sc1C(N)=O)c1ccccc1C(F)(F)F [GSK461364]	less potency than BI2536	–	significantly greater than the expected additive effect	less potency than BI2536	–	significantly greater than the expected additive effect	blocked proliferation almost completely at concentrations above 40 nM	–
COc1cc(Nc2ncc3c(n2)-c2ccc(Cl)cc2C(c2c(F)cccc2OC)=NC3)ccc1C(=O)O [MLN8237]	insufficient to inhibit proliferation	enhanced	–	insufficient to inhibit proliferation	enhanced	significantly greater effect than the expected additive effect	impaired proliferation at concentrations up to 160 nM	inhibition at 1 µM (U-2932 cells [1]; Homo sapiens, U2932, 144 h, U-2932, drug 1 μM, day 6, read-out: Growth inhibition, drug alone): ~40%; inhibition at 0.1 µM (RIVA cells; Homo sapiens, 144 h, RIVA, drug 100 nM, day 6, read-out: Growth inhibition, drug alone): ~60%
CNCc1ccc(-c2[nH]c3cc(F)cc4c3c2CCNC4=O)cc1 [Rucaparib]	–	potentiated the proliferation inhibitory effect of Betalutin; also recorded: stronger growth inhibition than Betalutin alone	larger than the expected additive effect	–	potentiated the proliferation inhibitory effect of Betalutin; also recorded: stronger growth inhibition than Betalutin alone	larger than the expected additive effect	–	Growth inhibitory effect, drug alone (U-2932 cells [1]; U-2932, all tested concentrations (10 nM, 1 μM)): no growth inhibitory effect; Growth inhibitory effect, drug alone (RIVA cells; RIVA, all tested concentrations (10, 100 nM)): no growth inhibitory effect
^177Lu-rituximab	–	–	–	–	–	–	–	Apoptosis level (DOHH2 cells [3]): 97±3%; Apoptosis level (Ramos cells [4]): 56±12%; Apoptosis level (Rec-1 cells [5]): 79±16%; Proportion of cells showing a G2/M cell cycle arrest (DOHH2 cells [6]): 38±2%; Proportion of cells showing a G2/M cell cycle arrest (Ramos cells [7]): 56±13%; Proportion of cells showing a G2/M cell cycle arrest (Rec-1 cells [8]): 40±11%; Proportion of cells expressing CD44 and CD133 [9]: strongly increased
